Data published in publication PMC11121470, “Leveraging the Fragment Molecular Orbital and MM-GBSA Methods in Virtual Screening for the Discovery of Novel Non-Covalent Inhibitors Targeting the TEAD Lipid Binding Pocket” (International Journal of Molecular Sciences, 2024).
Entries after “also recorded” stand apart in the source; their conditions may differ. Like-named read-outs stand apart in the source and are kept apart here. Values belong to the compound of their own block, whether it stands above or below them.

Legend:
TEAD [1] = experiment: TEAD luciferase reporter assay in MCF7 cells; format: cell-based; conditions: for IC50: Homo sapiens
Method: (§1) Stable cell lines, namely MCF7 cell TEAD luciferase cells, were maintained in Dulbecco’s modified Eagle medium (DMEM) containing 10% fetal bovine serum, penicillin, and streptomycin, at 37 °C, in a humidified incubator containing 5% CO2. To construct an MCF7-TEAD luciferase stable cell line, MCF7 cells were infected with a TEAD luciferase reporter lentivirus using polybrene (Millipore, Burlington, MA, USA) and then selected with puromycin. The stable cell lines NCI-[…] and NCI-H28 were maintained in Roswell Park Memorial Institute (RPMI) medium.
TEAD luciferase reporter MCF7 cells were seeded into 96-well white plates (3 × 10^4 cells per well). The medium was replaced with DMEM without fetal bovine serum (FBS; 100 μL per well), and the cells were treated with various concentrations of compounds (0.001–10 μmol/L) for 24 h. Fifty microliters of the medium containing compounds was removed from each well, following which 50 μL of FBS in 10% DMEM was added to the cells and incubated for 6 h. Luciferase activity was measured using the One-Glo® Luciferase Assay Kit from Promega (Madison, WI, USA). A small portion of the medium was removed (60 μL) from each well, and 40 μL of One-Glo® Luciferase assay buffer containing reagent was added in its place. Luminescence was measured using a VICTOR® Nivo™ multimode microplate reader (PerkinElmer, Waltham, MA, USA) and normalized to the results of the vehicle.

H226 cancer cell = experiment: Cell viability assay (CellTiter-Glo 2.0), H226; format: cell-based; conditions: Homo sapiens, NCI-H226, 144 h, H226 cells, n = 3
Method: as §1
(§2) Cells were seeded into 96-well plates (1 × 10^3 cells per well) and changed to RPMI with 1% FBS, and then treated with various concentrations (0.0001–10 μmol/L) of compounds (MGH-CP1, BC-010, BC-011, and BC-013) for 144 h. The medium was replaced with 1% FBS + RPMI containing compounds every 3 d. Cell viability was measured using the CellTiter-Glo® 2.0 Cell Viability Assay Kit from Promega. Before the viability was measured, the drug treatment medium was removed and replaced with 50 μL of FBS-free RPMI and 50 μL of CellTiter-Glo® 2.0 reagent. The cells with medium replacement were incubated for 1 h at room temperature, to prevent exposure to light. Luminescence was measured using a VICTOR® Nivo™ multimode microplate reader (PerkinElmer) and normalized to the results of the vehicle.

H28 cancer cell line = experiment: Cell viability assay (CellTiter-Glo 2.0), H28; format: cell-based; conditions: for IC50: Homo sapiens, NCI-H28, H28 cells, 144 h, n = 3
Method: as §1, §2

[2] = system: TEAD target genes Ctgf and Cyr61; experiment: mRNA expression of TEAD target genes by qRT-PCR in H226 cells; format: cell-based; conditions: 24 h, 1, 5 and 10 μM, n = 3
Method: H226 cells were seeded at a density of 1 × 10^5 cells/well into a 12-well plate. After treatment with various concentrations (1, 5, and 10 μM) of the compounds, the cells were incubated at 37 °C for 24 h. RNA extraction was performed using the RNeasy Plus Mini Kit (QIAGEN, Hilden, Germany), as per the manufacturer’s protocol. Extracted RNA was quantified using a NanoDrop™ One Microvolume UV–Vis Spectrophotometer (Thermo Fisher, Waltham, MA, USA). cDNA was synthesized using 1000 ng of quantified RNA and an iScript™ cDNA Synthesis Kit (Bio-Rad, Hercules, CA, USA). qRT-PCR was carried out using PowerUp™ SYBR™ Green Master Mix (Thermo Fisher) and primers (hCTGF-F: CCAATGACAACGCCTCCTG, hCTGF-R: TGGTGCAGCCAGAAAGCTC, hCYR61-F: […], hCYR61-R: […], hβ-actin-F: […], hβ-actin-R: […]), with the results normalized to those of the vehicle.

TEAD2 = biological target: TEAD2; parameters: method as in PMID 26592798; conditions: reference compounds of Figure 1; cited from earlier work
TEAD [3] = conditions: cited from earlier work
TEAD [4] = conditions: cited from earlier work; remark: listed apart in the source
[5] = 1 nM to 10 μM, n = 2, read-out: IC50, TEAD reporter luciferase assay
[6] = reference compounds of Figure 1
[7] = reference compounds of Figure 1 and FMO section
[8] = Vivace compounds, ref 45 (WO202097389A1)

IC50 (TEAD [1]; [5]): 3680 nM
IC50 (TEAD [1]; read-out: IC50, reporter assay): 3700 nM
SMILES: COc1ccc(C(=O)NN)cc1COc1ccc(Cl)c(C)c1 [BC-001]

IC50 (TEAD [1]; [5]): 2890 nM
SMILES: COc1ccc(C(=O)NN)cc1COc1ccc(Br)cc1 [BC-002]
TEAD reporter luciferase activity (in words) (TEAD [1]): retained the same activity as BC-001

IC50 (TEAD [1]; [5]): 3990 nM
SMILES: COc1ccc(C(=O)NN)cc1COc1ccc(Cl)cc1 [BC-003]
TEAD reporter luciferase activity (in words) (TEAD [1]): retained the same activity as BC-001

IC50 (TEAD [1]; 1 nM to 10 μM, n = 2, printed in figure as 10uM<, read-out: IC50, TEAD reporter luciferase assay): > 10000 nM
SMILES: COc1ccc(C=C(C#N)C#N)cc1COc1cc(C)c(Cl)c(C)c1 [BC-004]
TEAD reporter luciferase activity (in words) (TEAD [1]): did not exhibit any activity

SMILES: NNC(=O)c1cccc(COc2ccc(Cl)cc2)c1 [BC-005]
TEAD reporter luciferase activity (in words) (TEAD [1]): increased

IC50 (TEAD [1]; [5]): 1520 nM
SMILES: COc1ccc(C(=O)NN)cc1COc1ccccc1 [BC-006]

IC50 (TEAD [1]; [5]): 5610 nM
SMILES: COc1ccc(C(N)=O)cc1COc1ccccc1 [BC-007]

IC50 (TEAD [1]; [5]): > 10000 nM
SMILES: COc1ccc(C(=O)O)cc1COc1ccccc1 [BC-008]

IC50 (TEAD [1]; [5]): 2610 nM
SMILES: COC(=O)c1ccc(OC)c(COc2ccccc2)c1 [BC-009]

IC50 (H226 cancer cell): 930 nM
IC50 (TEAD [1]; [5]): 768 nM
IC50 (H28 cancer cell line): 9100 nM
SMILES: COc1ccc(C(=O)NN)cc1COc1ccc(C(F)(F)F)cc1 [BC-010]

IC50 (H226 cancer cell): 488 nM
IC50 (TEAD [1]; [5]): 72.4 nM
IC50 (H28 cancer cell line): > 10000 nM
SMILES: COc1ccc(C(N)=O)cc1COc1ccc(C(F)(F)F)cc1 [BC-011]
Ctgf mRNA expression [2]: significantly downregulated; also recorded: decreased
Cyr61 mRNA expression [2]: significantly downregulated; also recorded: decreased
Effect on viability (in words) (H28 cancer cell line; H28 cancer cell line): did not show any inhibitory effects

IC50 (TEAD [1]; [5]): 8900 nM
SMILES: COc1ccc(C(=O)O)cc1COc1ccc(C(F)(F)F)cc1 [BC-012]

IC50 (H226 cancer cell): 2250 nM
IC50 (TEAD [1]; [5]): 417 nM
IC50 (H28 cancer cell line): 9320 nM
SMILES: COC(=O)c1ccc(OC)c(COc2ccc(C(F)(F)F)cc2)c1 [BC-013]

SMILES: O=C(O)c1ccccc1Nc1cccc(Br)c1 [Bromofenamic acid, bromofenamic acid]
Kd (TEAD2): 234000 nM

SMILES: COc1c(C)cc(N2C[C@@H](O)[C@@H](O)C2=O)cc1/C=C/c1ccc(Cl)cc1 [Compound 1 (Genentech)]
IC50 (TEAD [3]; [6]): 2800 nM

SMILES: COc1ncc(NS(C)(=O)=O)cc1/C=C/C1CCC(F)(F)CC1 [Compound 2]
IC50 (TEAD [3]; [7]): 263 nM

SMILES: C[C@@H](CN(C)C)NC(=O)c1ccc2c(-c3ccc(C(F)(F)F)cc3)cccc2c1 [EX64]
IC50 (TEAD [4]; [8]): 1000 to 3000 nM

SMILES: O=C(O)c1ccccc1Nc1cccc(C(F)(F)F)c1 [Flufenamic acid, flufenamic acid]
Kd (TEAD2): 73000 nM

SMILES: O=C(O)c1cnc2c(cnn2C2CCCC2)c1 [Fragment 1(Merck)]
IC50 (TEAD [3]; [6]): 16000 nM

SMILES: C=CC(=O)Nc1ccc(C)c(Oc2ccc(Cl)cc2)c1 [K–975]
IC50 (TEAD [3]; [7]): < 100 nM

IC50 (H226 cancer cell): 1190 nM
IC50 (TEAD [1]; [5]): 219 nM
IC50 (H28 cancer cell line): 1720 nM
SMILES: O=C(CSc1nnc[nH]1)Nc1ccc(C23CC4CC(CC(C4)C2)C3)cc1 [MGH-CP1, reference compound]
IC50 (TEAD [3]; [7]): 1920 nM

SMILES: Cn1cc2c3cc(C(=O)O)ccc3n(-c3ccc(C(F)(F)F)cc3)c2n1 [MSC-4106]
IC50 (TEAD [3]; [7]): 4 nM

SMILES: C=CC(=O)N1C[C@@H](n2cc(-c3cccnc3)nn2)[C@H](OCc2ccc(C(F)(F)F)cc2)C1 [MYF–03–69]
IC50 (TEAD [3]; [7]): 385 nM

SMILES: Cn1cc2c3cc(C(=O)O)ccc3n(-c3ccc(F)cc3)c2n1 [Merck_20]
IC50 (TEAD [4]; Merck compounds, ref 40 (WO2021224291A1)): 1900 nM

SMILES: O=C(CCl)c1ccccc1Nc1cccc(C(F)(F)F)c1 [TED–347]
EC50 (TEAD [3]; reference compound of Figure 1): 5900 ± 400 nM

SMILES: O=C(Nc1ccccc1)N1CCN(C(=O)c2cccc(OCCC3CCCCC3)c2)CC1 [TM2]
IC50 (TEAD [3]; [6]): 152 nM

SMILES: C[C@H](NC(=O)c1ccc2c(-c3ccc(C(F)(F)F)cc3)cccc2c1)c1ccccn1 [VT-104]
IC50 (TEAD [4]; [8]): 10 nM

SMILES: CC(NC(=O)c1cnc2c(-c3ccc(C(F)(F)F)cc3)cccc2c1)c1ccccn1 (centres unmarked) [VT-105]
IC50 (TEAD [3]; [7]): 10.4 nM
